# Columns and labels:
# [1] = system: control sera (pooled serum of ten healthy LUMC hospital workers; commercial negative donor pooled serum from the Dutch bloodbank); assay type: binding, human; parameters: Binding of Control serum LUMC to linear peptides / Binding of Control serum Blood-bank to linear peptides / Binding of Control serum LUMC to looped peptides / Binding of Control Serum Blood-Bank to Looped peptides / Binding of Control serum LUMC to linear peptides of the protein M of SARS-CoV Urbani / Binding of Control serum Blood-bank to linear peptides of the protein M of SARS-CoV Urbani / Binding of Control serum LUMC to looped peptides of the protein M of SARS-CoV Urbani / Binding of Control Serum Blood-Bank to Looped peptides of the protein M of SARS-CoV Urbani: unit not given here
# [2] = system: rabbit serum obtained by immunizing a rabbit with the SARS-CoV strain Frankfurt 1; assay type: binding; parameters: Binding of a rabbit serum to linear peptides / Binding of a rabbit serum to looped peptides / Rabbit serum linear peptides / Rabbit serum looped peptides / Binding of a rabbit serum to linear peptides of protein N of SARS-CoV Urbani (Rabbit serum linear peptides) / Binding of a rabbit serum to looped/cyclic peptides of protein N of SARS-CoV Urbani (Rabbit serum looped peptides): unit not given here
# [3] = system: antibodies in sera from SARS patients (sera 1a, 1b, 2, 6, 37, 62, London, SARS-yellow, SARS-green); assay type: binding, human; parameters: Binding of serum 6 to linear peptides of protein X1 of SARS-CoV Urbani / Binding of serum 37 to linear peptides of protein X1 of SARS-CoV Urbani / Binding of serum 6 to looped/cyclic peptide (PEPSCAN-ELISA) / Binding of serum 37 to looped/cyclic peptide (PEPSCAN-ELISA) / Binding of serum 37 to looped/cyclic peptides of protein X1 of SARS-CoV Urbani / Binding of serum 6 to linear peptides of protein X2 / Binding of serum 37 to linear peptides of protein X2 / Binding of serum 37 to looped/cyclic peptides of protein X2 of SARS-CoV Urbani / Binding of serum 6 to linear peptides of protein M of SARS-CoV Urbani / Binding of serum 37 to linear peptides of protein M of SARS-CoV Urbani / Binding of serum 6 to looped/cyclic peptides of protein M of SARS-CoV Urbani / Binding of serum 37 to looped/cyclic peptides of protein M of SARS-CoV Urbani / Binding of serum 6 to linear peptides of protein X3 of SARS-CoV Urbani / Binding of serum 37 to linear peptides of protein X3 of SARS-CoV Urbani / Binding of serum 37 to looped/cyclic peptides of protein X3 of SARS-CoV Urbani / Binding of serum 6 to linear peptides of protein X4 of SARS-CoV Urbani / Binding of serum 37 to linear peptides of protein X4 of SARS-CoV Urbani / Binding of serum 37 to looped/cyclic peptides of protein X4 of SARS-CoV Urbani / Binding of serum 6 to linear peptides of protein X5 of SARS-CoV Urbani / Binding of serum 37 to linear peptides of protein X5 of SARS-CoV Urbani / Binding of serum 37 to looped/cyclic peptides of protein X5 of SARS-CoV Urbani / Binding of serum 6 to linear peptides of protein N of SARS-CoV Urbani / Binding of serum 37 to linear peptides of protein N of SARS-CoV Urbani / Binding of serum 6 to linear peptide (PEPSCAN-ELISA) / Binding of serum 1a to looped/cyclic peptides of protein N of SARS-CoV Urbani / Binding of serum 1b to looped/cyclic peptides of protein N of SARS-CoV Urbani / Binding of serum 2 to looped/cyclic peptides of protein N of SARS-CoV Urbani / Binding of serum 6 to looped/cyclic peptides of protein N of SARS-CoV Urbani / Binding of serum 37 to looped/cyclic peptides of protein N of SARS-CoV Urbani / Binding of serum 62 to looped/cyclic peptides of protein N of SARS-CoV Urbani / Binding of serum London to looped/cyclic peptides of protein N of SARS-CoV Urbani / Binding of serum SARS-green to looped/cyclic peptides of protein N of SARS-CoV Urbani: unit not given here
sequence,measurement,setting,value
AIAMACIVGLMWLSY,Binding of Control Serum Blood-Bank to Looped peptides of the protein M of SARS-CoV Urbani,[1],0.6
same,Binding of Control serum Blood-bank to linear peptides of the protein M of SARS-CoV Urbani,[1],0.7
same,Binding of Control serum LUMC to linear peptides of the protein M of SARS-CoV Urbani,[1],0.3
same,Binding of Control serum LUMC to looped peptides of the protein M of SARS-CoV Urbani,[1],0.6
same,Rabbit serum linear peptides,[2],0.4
same,Rabbit serum looped peptides,[2],0.0
same,Binding of serum 1a to linear peptides of protein M of SARS-CoV Urbani,[3],0.7
same,Binding of serum 1a to looped/cyclic peptides of protein M of SARS-CoV Urbani,[3],0.5
same,Binding of serum 1b to linear peptides of protein M of SARS-CoV Urbani,[3],0.5
same,Binding of serum 1b to looped/cyclic peptides of protein M of SARS-CoV Urbani,[3],0.3
same,Binding of serum 2 to linear peptides of protein M of SARS-CoV Urbani,[3],0.6
same,Binding of serum 2 to looped/cyclic peptides of protein M of SARS-CoV Urbani,[3],0.4
same,Binding of serum 6 to linear peptides of protein M of SARS-CoV Urbani,[3],0.4
same,Binding of serum 6 to looped/cyclic peptides of protein M of SARS-CoV Urbani,[3],0.6
same,Binding of serum 37 to linear peptides of protein M of SARS-CoV Urbani,[3],0.7
same,Binding of serum 37 to looped/cyclic peptides of protein M of SARS-CoV Urbani,[3],0.5
same,Binding of serum 62 to linear peptides of protein M of SARS-CoV Urbani,[3],0.7
same,Binding of serum 62 to looped/cyclic peptides of protein M of SARS-CoV Urbani,[3],0.4
same,Binding of serum London to linear peptides of protein M of SARS-CoV Urbani,[3],0.4
same,Binding of serum London to looped/cyclic peptides of protein M of SARS-CoV Urbani,[3],0.2
same,Binding of serum SARS-green to linear peptides of protein M of SARS-CoV Urbani,[3],0.3
same,Binding of serum SARS-green to looped/cyclic peptides of protein M of SARS-CoV Urbani,[3],4.4
same,Binding of serum SARS-yellow to linear peptides of protein M of SARS-CoV Urbani,[3],0.1
same,Binding of serum SARS-yellow to looped/cyclic peptides of protein M of SARS-CoV Urbani,[3],0.8
FQFICNLLLLFVTIY,Binding of Control Serum Blood-Bank to Looped peptides,[1],0.4
same,Binding of Control serum Blood-bank to linear peptides,[1],0.5
same,Binding of Control serum LUMC to linear peptides,[1],0.5
same,Binding of Control serum LUMC to looped peptides,[1],0.3
same,Binding of a rabbit serum to linear peptides,[2],0.9
same,Binding of a rabbit serum to looped peptides,[2],0.0
same,Binding of serum 1a to linear peptides of protein X1 of SARS-CoV Urbani,[3],0.6
same,Binding of serum 1a to looped/cyclic peptide (PEPSCAN-ELISA),[3],0.2
same,Binding of serum 1b to linear peptides of protein X1 of SARS-CoV Urbani,[3],0.5
same,Binding of serum 1b to looped/cyclic peptide (PEPSCAN-ELISA),[3],0.0
same,Binding of serum 2 to linear peptides of protein X1 of SARS-CoV Urbani,[3],0.5
same,Binding of serum 2 to looped/cyclic peptide (PEPSCAN-ELISA),[3],0.0
same,Binding of serum 6 to linear peptides of protein X1 of SARS-CoV Urbani,[3],0.3
same,Binding of serum 6 to looped/cyclic peptide (PEPSCAN-ELISA),[3],0.2
same,Binding of serum 37 to linear peptides of protein X1 of SARS-CoV Urbani,[3],0.5
same,Binding of serum 37 to looped/cyclic peptide (PEPSCAN-ELISA),[3],0.0
same,Binding of serum 62 to linear peptides of protein X1 of SARS-CoV Urbani,[3],0.5
same,Binding of serum 62 to looped/cyclic peptide (PEPSCAN-ELISA),[3],0.2
same,Binding of serum London to linear peptides of protein X1 of SARS-CoV Urbani,[3],0.2
same,Binding of serum London to looped/cyclic peptide (PEPSCAN-ELISA),[3],0.1
same,Binding of serum SARS-green to linear peptides of protein X1 of SARS-CoV Urbani,[3],0.1
same,Binding of serum SARS-green to looped/cyclic peptide (PEPSCAN-ELISA),[3],0.4
same,Binding of serum SARS-yellow to linear peptides of protein X1 of SARS-CoV Urbani,[3],0.5
same,Binding of serum SARS-yellow to looped/cyclic peptide (PEPSCAN-ELISA),[3],0.0
LLWPVTLACFVLAAV,Binding of Control Serum Blood-Bank to Looped peptides of the protein M of SARS-CoV Urbani,[1],0.6
same,Binding of Control serum Blood-bank to linear peptides of the protein M of SARS-CoV Urbani,[1],0.7
same,Binding of Control serum LUMC to linear peptides of the protein M of SARS-CoV Urbani,[1],0.7
same,Binding of Control serum LUMC to looped peptides of the protein M of SARS-CoV Urbani,[1],0.7
same,Rabbit serum linear peptides,[2],0.2
same,Rabbit serum looped peptides,[2],0.3
same,Binding of serum 1a to linear peptides of protein M of SARS-CoV Urbani,[3],0.7
same,Binding of serum 1a to looped/cyclic peptides of protein M of SARS-CoV Urbani,[3],0.9
same,Binding of serum 1b to linear peptides of protein M of SARS-CoV Urbani,[3],0.5
same,Binding of serum 1b to looped/cyclic peptides of protein M of SARS-CoV Urbani,[3],0.5
same,Binding of serum 2 to linear peptides of protein M of SARS-CoV Urbani,[3],0.6
same,Binding of serum 2 to looped/cyclic peptides of protein M of SARS-CoV Urbani,[3],0.9
same,Binding of serum 6 to linear peptides of protein M of SARS-CoV Urbani,[3],0.4
same,Binding of serum 6 to looped/cyclic peptides of protein M of SARS-CoV Urbani,[3],0.6
same,Binding of serum 37 to linear peptides of protein M of SARS-CoV Urbani,[3],0.5
same,Binding of serum 37 to looped/cyclic peptides of protein M of SARS-CoV Urbani,[3],0.8
same,Binding of serum 62 to linear peptides of protein M of SARS-CoV Urbani,[3],0.5
same,Binding of serum 62 to looped/cyclic peptides of protein M of SARS-CoV Urbani,[3],0.8
same,Binding of serum London to linear peptides of protein M of SARS-CoV Urbani,[3],0.3
same,Binding of serum London to looped/cyclic peptides of protein M of SARS-CoV Urbani,[3],0.3
same,Binding of serum SARS-green to linear peptides of protein M of SARS-CoV Urbani,[3],0.5
same,Binding of serum SARS-green to looped/cyclic peptides of protein M of SARS-CoV Urbani,[3],0.4
same,Binding of serum SARS-yellow to linear peptides of protein M of SARS-CoV Urbani,[3],0.1
same,Binding of serum SARS-yellow to looped/cyclic peptides of protein M of SARS-CoV Urbani,[3],0.9

# — patent publication US20070128217A1 (priority 2003, published 2007)
